Test results as given in article PMC10377034, “Syntheses of 25-Adamantyl-25-alkyl-2-methylidene-1α,25-dihydroxyvitamin D3 Derivatives with Structure–Function Studies of Antagonistic and Agonistic Active Vitamin D Analogs” (Biomolecules, 2023).
Like-named read-outs stand apart in the source and are kept apart here.

What was measured:
hVDR = target: T1, hVDR (Homo sapiens, UniProt P11473); assay: VDR transactivation luciferase reporter assay in HEK293 cells (SPP×3-tk-LUC); format: cell-based
T1 construct: expressed in transfected cells; host or cells: HEK293
T1 sequence (P11473 1-427): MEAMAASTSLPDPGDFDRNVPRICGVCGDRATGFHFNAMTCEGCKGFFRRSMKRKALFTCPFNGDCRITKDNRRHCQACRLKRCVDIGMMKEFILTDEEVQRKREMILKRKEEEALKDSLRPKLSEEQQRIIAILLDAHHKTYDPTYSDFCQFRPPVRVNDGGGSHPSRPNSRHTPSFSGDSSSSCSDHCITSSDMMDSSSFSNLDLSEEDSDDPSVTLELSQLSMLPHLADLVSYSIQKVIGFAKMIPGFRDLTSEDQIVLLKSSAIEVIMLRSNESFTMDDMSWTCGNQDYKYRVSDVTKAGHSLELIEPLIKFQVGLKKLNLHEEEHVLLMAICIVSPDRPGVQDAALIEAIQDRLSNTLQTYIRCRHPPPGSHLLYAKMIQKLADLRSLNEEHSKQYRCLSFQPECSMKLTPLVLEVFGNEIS
Procedure: The transcriptional activity of the 25-alkylvitamin D analogs on the VDR was evaluated via a luciferase reporter assay in HEK293 human kidney cells transfected with an hVDR expression vector and a luciferase reporter with mouse osteopontin vitamin D response elements (VDREs, SPP×3-tk-LUC).
Transfections of 50 ng of TK-Spp × 3-LUC reporter plasmid, 10 ng of pCMX-β-galactosidase, and 15 ng of pCMX-VDR for each well of a 96-well plate were performed in HEK293 cells using the calcium phosphate coprecipitation method, as described previously. The mammalian two-hybrid assay for cofactor interaction with VDR used 50 ng of TK-MH100(UAS) × 3- LUC reporter plasmid, 10 ng of pCMX-β-galactosidase, 15 ng of pCMX-GAL4-RXRα, pCMX-GAL4-SRC1, or pCMX-GAL4-NCoR, and 15 ng of pCMX-VP16-VDR for each well of a 96-well plate. Luciferase and β-galactosidase activities were measured with a luminometer and a microplate reader (Molecular Devices, Sun Jose, CA, USA), respectively. Luciferase values were normalized to the internal β-galactosidase control.
HEK293 cells were co-transfected with TK-Spp × 3-LUC reporter plasmid and pCMX−VDR, and 8 h after transfection the cells were treated with several concentrations of each compound. After 24 h, the cells were harvested for assaying luciferase and β-galactosidase activity using a luminometer (Molecular Devices, Sunnyvale, CA, USA).

recombinant hVDR-LBD = target: T2, recombinant hVDR-LBD (Homo sapiens, UniProt P11473); assay: biochemical
T2 sequence (P11473 140-427): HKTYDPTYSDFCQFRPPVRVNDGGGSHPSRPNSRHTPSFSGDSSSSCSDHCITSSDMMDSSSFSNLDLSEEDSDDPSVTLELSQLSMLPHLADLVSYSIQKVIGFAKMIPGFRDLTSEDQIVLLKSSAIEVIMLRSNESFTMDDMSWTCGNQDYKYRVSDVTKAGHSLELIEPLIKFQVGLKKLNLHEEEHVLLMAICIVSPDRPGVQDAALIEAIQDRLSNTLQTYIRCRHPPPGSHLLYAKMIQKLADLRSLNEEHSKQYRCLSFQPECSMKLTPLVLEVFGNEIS
Procedure: The pGEX-hVDR and pGEX were expressed for a GST-VDR fusion protein and a control GST protein, respectively, in Escherichia coli BL21 (Merck, Darmstadt, Germany). The bacteria were lysed by sonication in a sonication buffer (50 mM Tris-HCl, pH 8.0, 50 mM NaCl, 1 mM EDTA, and 1 mM DTT). The supernatant proteins (1 μg) were diluted in a binding buffer (25 mM Tris, pH 7.5, 100 mM KCl, 25 mM DTT, 4 mM CHAPS, pH 7.5) containing bovine serum albumin (100 μg/mL). A solution containing each test compound in 15 μL of EtOH was added to 570 μL of the GST protein solution in each tube. After being vortexed 2–3 times, the mixture was incubated for 30 min at room temperature. […] After being vortexed 2–3 times, the whole mixture was allowed to stand at 4 °C for 20 h, and 400 μL of dextran-coated charcoal solution (Sigma) was added to remove free ligands.
All values represent the means, and error bars are the standard deviations derived from triplicate assays.

[1] = system: CYP24A1 expression in U937 cells; assay: CYP24A1 expression (RT-qPCR) in U937 cells; conditions: U937 blood cells, 100 nM, 24 h
Procedure: (§1) SW480 human colon carcinoma cells (American Type Culture Collection, Manassas, VA) and HaCaT immortalized keratinocyte cells (kindly provided by Dr. Tadashi Terui, Department of Dermatology, Nihon University School of Medicine) were cultured in DMEM containing 10% FBS, 100 U/mL penicillin, and 0.1 mg/mL streptomycin. […] All cells were cultured at 37 °C in a humidified atmosphere containing 5% CO2.
(§2) For gene expression analysis, 1 × 10^4 cells per well were plated in a 24-well plate. After 24 h, the cells were treated with an ethanol control or 100 nM of each test compound for 24 h. The total RNAs from the samples were extracted using the acid guanidine thiocyanate phenol/chloroform method [57], and cDNAs were synthesized using the ImProm-II reverse transcription system (Promega, Madison, WI) [43]. Real-time PCR was performed on the ABI PRISM 7000 sequence detection system (Thermo Fisher Scientific, Waltham, MA, USA) using Power SYBR Green PCR master mix (Thermo Fisher Scientific).
(§3) One-way ANOVA followed by Turkey’s multiple comparisons: ※ p < 0.05, ※※ p < 0.01, ※※※ p < 0.001 versus vehicle control.

[2] = system: CYP24A1 expression in MG63 cells; assay: CYP24A1 expression (RT-qPCR) in MG63 cells; conditions: MG63 bone cells, 100 nM, 24 h
Procedure: (§4) HEK293 human kidney cells (RIKEN Cell Bank, Tsukuba, Japan) were cultured in Dulbecco’s modified Eagle’s medium (DMEM) (Fujifilm Wako Pure Chemical Corporation, Tokyo, Japan) containing 5% fetal bovine serum (FBS), 100 U/mL penicillin, and 0.1 mg/mL streptomycin (Nacalai Tesque, Kyoto, Japan). SW480 human colon carcinoma cells (American Type Culture Collection, Manassas, VA) and HaCaT immortalized keratinocyte cells (kindly provided by Dr. Tadashi Terui, Department of Dermatology, Nihon University School of Medicine) were cultured in DMEM containing 10% FBS, 100 U/mL penicillin, and 0.1 mg/mL streptomycin. MG63 human osteosarcoma cells (RIKEN Cell Bank) and lung-derived H292 cells (American Type Culture Collection) were cultured in minimum essential medium containing 10% FBS, 100 U/mL penicillin, and 0.1 mg/mL streptomycin. […] All cells were cultured at 37 °C in a humidified atmosphere containing 5% CO2.
(§5) For gene expression analysis, 1 × 10^4 cells per well were plated in a 24-well plate. After 24 h, the cells were treated with an ethanol control or 100 nM of each test compound for 24 h. […] Real-time PCR was performed on the ABI PRISM 7000 sequence detection system (Thermo Fisher Scientific, Waltham, MA, USA) using Power SYBR Green PCR master mix (Thermo Fisher Scientific).

[3] = system: CYP24A1 expression in SW480 cells; assay: CYP24A1 expression (RT-qPCR) in SW480 cells; conditions: SW480 intestine cells, 100 nM, 24 h
Procedure: as §4, §5

[4] = system: CYP24A1 expression in HaCaT cells; assay: CYP24A1 expression (RT-qPCR) in HaCaT cells; conditions: HaCaT skin cells, 100 nM, 24 h
Procedure: as §1, §2, §3

[5] = system: CYP24A1 expression in HEK293 cells; assay: CYP24A1 expression (RT-qPCR) in HEK293 cells; conditions: HEK293 kidney cells, 100 nM, 24 h
Procedure: as §4, §5

VDR with SRC-1 = target: T3, VDR with SRC-1 (Homo sapiens, UniProt P11473); assay: Mammalian two-hybrid assay, VDR binding to SRC-1
T3 sequence (P11473 1-427): T1 sequence (P11473 1-427)
T3 sequence (Q15788 595-771 partner limits assumed): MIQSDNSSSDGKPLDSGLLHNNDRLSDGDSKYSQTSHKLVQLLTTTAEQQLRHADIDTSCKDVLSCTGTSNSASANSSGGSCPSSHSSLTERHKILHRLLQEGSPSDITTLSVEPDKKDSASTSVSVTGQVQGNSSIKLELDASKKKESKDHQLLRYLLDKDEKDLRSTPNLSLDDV
Procedure: (§6) We used the expression plasmids pCMX-VDR, pCMX-VP16- VDR, pCMX-GAL4-RXRα, pCMX-GAL4-SRC-1, and pCMX-GAL4- N-CoR, as reported previously [43]. […] We used luciferase reporters: VDR-responsive Sppx3-tk-LUC and GAL4-responsive MH100(UAS) × 4-tk-LUC reporters [43].
(§7) Transfections of 50 ng of TK-Spp × 3-LUC reporter plasmid, 10 ng of pCMX-β-galactosidase, and 15 ng of pCMX-VDR for each well of a 96-well plate were performed in HEK293 cells using the calcium phosphate coprecipitation method, as described previously [43]. The mammalian two-hybrid assay for cofactor interaction with VDR used 50 ng of TK-MH100(UAS) × 3- LUC reporter plasmid, 10 ng of pCMX-β-galactosidase, 15 ng of pCMX-GAL4-RXRα, pCMX-GAL4-SRC1, or pCMX-GAL4-NCoR, and 15 ng of pCMX-VP16-VDR for each well of a 96-well plate. Luciferase and β-galactosidase activities were measured with a luminometer and a microplate reader (Molecular Devices, Sun Jose, CA, USA), respectively. Luciferase values were normalized to the internal β-galactosidase control.
(§8) (B) Effects on the interactions between the VDR and SRC-1. HEK293 cells were co-transfected with CMX-GAL4-SRC-1, CMX-VP16-VDR, and MH100 (UAS) × 4-tk-LUC and were treated with each compound over a range of concentrations. (C) Effects on interactions of the VDR with NCoR-1. HEK293 cells were co-transfected with CMX-GAL4-N-CoR in combination with CMX-VP16-VDR and MH100 (UAS) × 4-tk-LUC and were treated with each compound over a range of concentrations.

VDR with RXRα = target: T4, VDR with RXRα (Homo sapiens, UniProt P11473); assay: Mammalian two-hybrid assay, interaction of the VDR with RXRα
T4 sequence (P11473 1-427): T1 sequence (P11473 1-427)
T4 sequence (P19793 1-462 partner): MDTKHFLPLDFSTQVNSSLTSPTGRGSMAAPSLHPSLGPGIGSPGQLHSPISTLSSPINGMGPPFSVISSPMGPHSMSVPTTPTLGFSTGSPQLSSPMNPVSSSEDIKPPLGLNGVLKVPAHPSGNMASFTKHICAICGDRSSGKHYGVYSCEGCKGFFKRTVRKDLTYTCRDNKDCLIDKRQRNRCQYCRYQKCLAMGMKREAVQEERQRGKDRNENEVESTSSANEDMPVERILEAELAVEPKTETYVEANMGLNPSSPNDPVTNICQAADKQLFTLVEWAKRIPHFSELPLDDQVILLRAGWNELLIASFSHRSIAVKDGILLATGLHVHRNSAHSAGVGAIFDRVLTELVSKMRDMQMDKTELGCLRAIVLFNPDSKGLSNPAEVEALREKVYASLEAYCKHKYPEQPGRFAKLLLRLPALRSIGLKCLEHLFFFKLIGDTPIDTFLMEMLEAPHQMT
Procedure: as §6, §7, §8

**Q.** With `C=C1[C@H](O)CC(=C/C=C2\CCC[C@]3(C)[C@@H]([C@H](C)CC#C[C@](O)(CCCC)C45CC6CC(CC(C6)C4)C5)CC[C@@H]23)C[C@H]1O` [ADKM6, (25S)-25-(1-Adamantyl)-1α,25-dihydroxy-2-methylidene-26-propyl-23-yne-19,27-dinorvitamin D3] as the compound, how does the Transcriptional activity efficacy (hVDR; 1,25(OH)2D3 = 100%) read?
**A.** 95%

**Q.** And the EC50 (hVDR; read-out: Transcriptional activity EC50)?
**A.** 0.62 nM

**Q.** What about the Emax (hVDR; this study, read-out: Transcriptional Activity % Efficacy of That of 1 (converted)) of the same compound?
**A.** 95%

**Q.** What about the EC50 (hVDR; this study, read-out: Transcriptional Activity EC50) of the same compound?
**A.** 0.6 nM

**Q.** What about the IC50 (recombinant hVDR-LBD) of the same compound?
**A.** 1.6 nM

**Q.** What about the “CYP24A1 expression relative to natural hormone 1” value [1] of the same compound?
**A.** 77.2%

**Q.** And the “CYP24A1 expression relative to natural hormone 1” value [2]?
**A.** 54.2%

**Q.** And the “CYP24A1 expression relative to natural hormone 1” value [3]?
**A.** 72.9%

**Q.** What about the “CYP24A1 expression relative to natural hormone 1” value [4] of the same compound?
**A.** 72.5%

**Q.** What about the “CYP24A1 expression relative to natural hormone 1” value [5] of the same compound?
**A.** 61.4%

**Q.** And the EC50 (VDR with SRC-1)?
**A.** 2.4 nM

**Q.** What about the “VDR-RXRα interaction EC50” value (VDR with RXRα; HEK293 cells, two-hybrid) of the same compound?
**A.** second-highest activity

**Q.** And the VDR-RXRα interaction efficacy (VDR with RXRα; compared to natural hormone 1)?
**A.** 114%
